Measured values reported in US20100144626A1, “Treatment of Multi-Drug Resistant Bacterial Infections” (priority 2006, published 2010).
Converted amounts (≈) assume the structure as drawn. “Also recorded” adds a separate entry of the source. Read-outs that look alike come from different tables or passages of the source.

Legend:
[1] = tested on: Enterococcus faecalis (VRE) E8 VanA; test: MIC, agar dilution (BSAC guidelines); format: cell-based; conditions: E. faecalis (VRE) E8 VanA
Protocol: (§1) In example experiments miconazole nitrate, was dissolved in methanol and econazole nitrate and clotrimazole were dissolved in DMSO and methanol respectively. Other solvents that may be used include caster oil, pyridine, DMSO and 0.9% saline. For IV administration agents may be solubilised in polyethoxylated caster oil, or cyclodextrins such as sulfobutylether7-βcyclodextrin or hydroxypropyl-β-cyclodextrin and lactic acid. Minimum inhibitory concentrations (MICs) of a range of clinical and control bacterial organisms were measured according to BSAC (British Society for Antimicrobial Chemotherapy) guidelines, described briefly as follows;
(§2) Preparation of Agar Plates and Broths
(§3) Stock solutions of each agent were prepared using the formula:
(§4) Where P=μg of active compound per mg (μg/mg) • V=volume required (mL) • C=final concentration of solution (mg/L) • W=weight of agent (mg) to be dissolved in volume V (mL)
(§5) Stock solutions were prepared at concentrations of 1000 mg/L and 100 mg/L. The appropriate amounts of each stock solution were added to separate Petri dishes give the following final concentrations (after the addition of 20 mL molten agar): 128, 64, 32, 16, 8, 4, 2, 1, 0.5, 0.25, 0.12, 0.06, 0.03, 0.015 mg/L.
(§6) Volumes (20 mL) of cooled molten IST agar (oxoid) was added to each Petri dish and mixed by swirling.
(§7) After drying, the plates were stored at 4° C. and protected from light. Plates were used on the day of preparation.
(§8) The test organisms were grown overnight in 5 mL IST broth. Using a dilution in 0.9% saline of 1:500 for Gram-negative organisms and 1:100 for Gram-positive organisms, the appropriate agar plates were inoculated using a multipoint inoculator.
(§9) Plates were incubated at 37° C. in air for 18-20 hours.
(§10) The MIC is the minimum amount of an antibiotic at which there is no visible growth of bacteria. Tiny single colonies or faint hazes were not counted as growth.

[2] = tested on: Escherichia coli NCTC 10418; test: MIC, agar dilution (BSAC guidelines); format: cell-based
Protocol: as §1, §2, §3, §4, §5, §6, §7, §8, §9, §10

[3] = tested on: Enterococcus gallinarum (VRE) E1 NCTC 12359 VanC1; test: MIC, agar dilution (BSAC guidelines); format: cell-based
Protocol: as §1, §2, §3, §4, §5, §6, §7, §8, §9, §10

[4] = tested on: Staphylococcus epidermidis ATCC 1228; test: MIC, agar dilution (BSAC guidelines); format: cell-based
Protocol: as §1, §2, §3, §4, §5, §6, §7, §8, §9, §10

[5] = tested on: VISA, strain USA/VISA 5827; test: MIC, agar dilution (BSAC guidelines); format: cell-based; conditions: Staphylococcus aureus
Protocol: as §1, §2, §3, §4, §5, §6, §7, §8, §9, §10

[6] = tested on: Enterococcus faecium (VRE) NCTC 7171; test: MIC, agar dilution (BSAC guidelines); format: cell-based
Protocol: as §1, §2, §3, §4, §5, §6, §7, §8, §9, §10

[7] = tested on: Enterococcus faecium (VRE) E15 VanA ATCC 4147; test: MIC, agar dilution (BSAC guidelines); format: cell-based
Protocol: as §1, §2, §3, §4, §5, §6, §7, §8, §9, §10

[8] = tested on: Acinetobacter Baumannii ATCC 19606; test: MIC, agar dilution (BSAC guidelines); format: cell-based
Protocol: as §1, §2, §3, §4, §5, §6, §7, §8, §9, §10

[9] = tested on: Enterococcus faecium (VRE) VanR B145344C LFE; test: MIC, agar dilution (BSAC guidelines); format: cell-based; conditions: E. faecium (VRE) VanR B145344C LFE
Protocol: as §1, §2, §3, §4, §5, §6, §7, §8, §9, §10

[10] = tested on: Pseudomonas aeruginosa NCTC 10662; test: MIC, agar dilution (BSAC guidelines); format: cell-based
Protocol: as §1, §2, §3, §4, §5, §6, §7, §8, §9, §10

[11] = tested on: Klebsiella pneumoniae ESBL 700603; test: MIC, agar dilution (BSAC guidelines); format: cell-based
Protocol: as §1, §2, §3, §4, §5, §6, §7, §8, §9, §10

[12] = tested on: Enterococcus faecium (VRE) E19 UAA/522 VanB; test: MIC, agar dilution (BSAC guidelines); format: cell-based; conditions: E. faecium (VRE) E19 UAA/522 VanB
Protocol: as §1, §2, §3, §4, §5, §6, §7, §8, §9, §10

[13] = tested on: VISA, strain USA/VISA 5836; test: MIC, agar dilution (BSAC guidelines); format: cell-based; conditions: Staphylococcus aureus
Protocol: as §1, §2, §3, §4, §5, §6, §7, §8, §9, §10

[14] = tested on: VISA, strain VISA 3900 UK; test: MIC, agar dilution (BSAC guidelines); format: cell-based; conditions: Staphylococcus aureus
Protocol: as §1, §2, §3, §4, §5, §6, §7, §8, §9, §10

Gram-negative organisms = test: Growth inhibition, summary of MIC testing; format: cell-based; conditions: summary in words
Protocol: as §1, §5, §8, §9, §10

[15] = tested on: strains of Staphylococci and Enterococci with reduced susceptibility to vancomycin; test: Growth inhibition, summary of MIC testing; format: cell-based; conditions: summary in words
Protocol: as §1, §5, §8, §9, §10

[16] = in vivo, cited from earlier work
[17] = replicate 1, read-out: Minimum inhibitory concentration (MIC)
[18] = replicate 2, read-out: Minimum inhibitory concentration (MIC)
[19] = replicate 3, read-out: Minimum inhibitory concentration (MIC)

With `Clc1ccccc1C(c1ccccc1)(c1ccccc1)n1ccnc1` [Clotrimazole, 1-[(2-chlorophenyl)diphenylmethyl]-1H-imidazole] the MIC [1, 17] was 6.5 µg/mL (≈ 18.8 µM), the MIC [1, 18] was > 6 µg/mL and the MIC [1, 19] was > 6 µg/mL. For the same molecule, the MIC ([2]; NCTC10418, E. coli NCTC 10418, replicate 1, read-out: Minimum inhibitory concentration (MIC)) was > 10 µg/mL, the MIC ([2]; NCTC10418, E. coli NCTC 10418, replicate 2, read-out: Minimum inhibitory concentration (MIC)) was > 6 µg/mL and the MIC ([2]; NCTC10418, E. coli NCTC 10418, replicate 3, read-out: Minimum inhibitory concentration (MIC)) was > 6 µg/mL. The MIC ([3]; E. gallinarum (VRE) E1 NCTC 12359 VanC1, replicate 1, read-out: Minimum inhibitory concentration (MIC)) was 4 µg/mL (≈ 11.6 µM), the MIC ([3]; E. gallinarum (VRE) E1 NCTC 12359 VanC1, replicate 2, read-out: Minimum inhibitory concentration (MIC)) was 6 µg/mL (≈ 17.4 µM) and the MIC ([3]; E. gallinarum (VRE) E1 NCTC 12359 VanC1, replicate 3, read-out: Minimum inhibitory concentration (MIC)) was > 6 µg/mL. The MIC ([4]; ATCC1228, S. epidermidis ATCC 1228, replicate 1, read-out: Minimum inhibitory concentration (MIC)) was 3 µg/mL (≈ 8.7 µM), the MIC ([4]; ATCC1228, S. epidermidis ATCC 1228, replicate 2, read-out: Minimum inhibitory concentration (MIC)) was 3 µg/mL (≈ 8.7 µM) and the MIC ([4]; ATCC1228, S. epidermidis ATCC 1228, replicate 3, read-out: Minimum inhibitory concentration (MIC)) was 2.5 µg/mL (≈ 7.25 µM). The MIC [5, 17] was 1.5 µg/mL (≈ 4.35 µM), the MIC [5, 18] was 3.5 µg/mL (≈ 10.1 µM) and the MIC [5, 19] was 3 µg/mL (≈ 8.7 µM). For the same molecule, the MIC ([6]; E. faecium (VRE) NCTC 7171, replicate 1, read-out: Minimum inhibitory concentration (MIC)) was 4 µg/mL (≈ 11.6 µM), the MIC ([6]; E. faecium (VRE) NCTC 7171, replicate 2, read-out: Minimum inhibitory concentration (MIC)) was 6 µg/mL (≈ 17.4 µM) and the MIC ([6]; E. faecium (VRE) NCTC 7171, replicate 3, read-out: Minimum inhibitory concentration (MIC)) was > 6 µg/mL. The MIC ([7]; E. faecium (VRE) E15 VanA ATCC 4147, replicate 1, read-out: Minimum inhibitory concentration (MIC)) was 2.5 µg/mL (≈ 7.25 µM), the MIC ([7]; E. faecium (VRE) E15 VanA ATCC 4147, replicate 2, read-out: Minimum inhibitory concentration (MIC)) was 4 µg/mL (≈ 11.6 µM) and the MIC ([7]; E. faecium (VRE) E15 VanA ATCC 4147, replicate 3, read-out: Minimum inhibitory concentration (MIC)) was 4.5 µg/mL (≈ 13 µM). For the same molecule, the MIC ([8]; ATCC19606, Acinetobacter Baumannii ATCC 19606, replicate 1, read-out: Minimum inhibitory concentration (MIC)) was > 10 µg/mL, the MIC ([8]; ATCC19606, Acinetobacter Baumannii ATCC 19606, replicate 2, read-out: Minimum inhibitory concentration (MIC)) was > 6 µg/mL and the MIC ([8]; ATCC19606, Acinetobacter Baumannii ATCC 19606, replicate 3, read-out: Minimum inhibitory concentration (MIC)) was > 6 µg/mL. For the same molecule, the MIC [9, 17] was 3 µg/mL (≈ 8.7 µM), the MIC [9, 18] was 4.5 µg/mL (≈ 13 µM) and the MIC [9, 19] was 5 µg/mL (≈ 14.5 µM). The MIC ([10]; NCTC10662, P. aeruginosa NCTC 10662, replicate 1, read-out: Minimum inhibitory concentration (MIC)) was > 10 µg/mL, the MIC ([10]; NCTC10662, P. aeruginosa NCTC 10662, replicate 2, read-out: Minimum inhibitory concentration (MIC)) was > 6 µg/mL and the MIC ([10]; NCTC10662, P. aeruginosa NCTC 10662, replicate 3, read-out: Minimum inhibitory concentration (MIC)) was > 6 µg/mL. For the same molecule, the MIC ([11]; ESBL700603, K. pneumoniae ESBL 700603, replicate 1, read-out: Minimum inhibitory concentration (MIC)) was > 10 µg/mL, the MIC ([11]; ESBL700603, K. pneumoniae ESBL 700603, replicate 2, read-out: Minimum inhibitory concentration (MIC)) was > 6 µg/mL and the MIC ([11]; ESBL700603, K. pneumoniae ESBL 700603, replicate 3, read-out: Minimum inhibitory concentration (MIC)) was > 6 µg/mL. For the same molecule, the MIC [12, 17] was 1.5 µg/mL (≈ 4.35 µM), the MIC [12, 18] was 3.5 µg/mL (≈ 10.1 µM) and the MIC [12, 19] was 3.5 µg/mL (≈ 10.1 µM). It also gave an MIC [13, 17] of 1.5 µg/mL (≈ 4.35 µM), an MIC [13, 18] of 3 µg/mL (≈ 8.7 µM) and an MIC [13, 19] of 2.5 µg/mL (≈ 7.25 µM). For the same molecule, the MIC [14, 17] was 1.5 µg/mL (≈ 4.35 µM), the MIC [14, 18] was 2.5 µg/mL (≈ 7.25 µM) and the MIC [14, 19] was 2.5 µg/mL (≈ 7.25 µM). The “activity against Gram-negative organisms” value (Gram-negative organisms) was “no significant activity”, the “activity against strains of Staphylococci and Enterococci with reduced susceptibility to vancomycin” value [15] was “good activity; also recorded: capable of inhibiting the growth” and the “administered dose detected in urine as active drug” value ([16]; po) was “Less than 1%”. The half-life ([16]; po) was “around 3 hours” and the “absorption following oral administration” value [16] was “well absorbed”.
